Experimental data published in the NIST ThermoML archive (doi:10.1021/acs.jced.8b00236).

Test: mn = molality of the nth substance listed, in mol/kg
Conditions: 75 kPa, Liquid; for viscosity: Capillary tube (Ostwald / Ubbelohde) method; for speed of sound: Frequency=3 MHz, Single path-length method; for mass density: Vibrating tube method

NCC(=O)O [2-aminoacetic acid] + O
Conditions | mass density [kg/m3] | speed of sound [m/s] | viscosity [mPa·s]
288.15 K, m1 = 0.1393 | 1003.55 | 1474.2 | 1.166
288.15 K, m1 = 0.2791 | 1007.86 | 1482 | 1.185
288.15 K, m1 = 0.4196 | 1012.03 | 1489.7 | 1.205
288.15 K, m1 = 0.56 | 1016.03 | 1497.4 | 1.226
288.15 K, m1 = 0.7019 | 1019.92 | 1505 | 1.248
288.15 K, m1 = 0.8453 | 1023.68 | 1512.6 | 1.27
288.15 K, m1 = 0.9876 | 1027.24 | 1520.1 | 1.295
288.15 K, m1 = 1.132 | 1030.68 | 1527.5 | 1.318
293.15 K, m1 = 0.1393 | 1002.61 | 1490.2 | 1.025
293.15 K, m1 = 0.2791 | 1006.87 | 1497.7 | 1.044
293.15 K, m1 = 0.4196 | 1010.97 | 1505.2 | 1.064
293.15 K, m1 = 0.56 | 1014.91 | 1512.5 | 1.084
293.15 K, m1 = 0.7019 | 1018.74 | 1519.8 | 1.104
293.15 K, m1 = 0.8453 | 1022.45 | 1527 | 1.125
293.15 K, m1 = 0.9876 | 1025.96 | 1534 | 1.146
293.15 K, m1 = 1.132 | 1029.37 | 1541 | 1.166
298.15 K, m1 = 0.1393 | 1001.4 | 1504.1 | 0.912
298.15 K, m1 = 0.2791 | 1005.6 | 1511.4 | 0.929
298.15 K, m1 = 0.4196 | 1009.68 | 1518.7 | 0.946
298.15 K, m1 = 0.56 | 1013.59 | 1525.8 | 0.964
298.15 K, m1 = 0.7019 | 1017.38 | 1532.8 | 0.982
298.15 K, m1 = 0.8453 | 1021.05 | 1539.8 | 0.999
298.15 K, m1 = 0.9876 | 1024.54 | 1546.6 | 1.011
298.15 K, m1 = 1.132 | 1027.89 | 1553.3 | 1.026
303.15 K, m1 = 0.1393 | 999.949 | 1516.3 | 0.82
303.15 K, m1 = 0.2791 | 1004.11 | 1523.4 | 0.839
303.15 K, m1 = 0.4196 | 1008.15 | 1530.5 | 0.853
303.15 K, m1 = 0.56 | 1012.03 | 1537.5 | 0.869
303.15 K, m1 = 0.7019 | 1015.8 | 1544.3 | 0.885
303.15 K, m1 = 0.8453 | 1019.44 | 1551.2 | 0.901
303.15 K, m1 = 0.9876 | 1022.91 | 1557.8 | 0.913
303.15 K, m1 = 1.132 | 1026.27 | 1564.5 | 0.929
308.15 K, m1 = 0.1393 | 998.286 | 1526.7 | 0.734
308.15 K, m1 = 0.2791 | 1002.41 | 1533.6 | 0.752
308.15 K, m1 = 0.4196 | 1006.42 | 1540.5 | 0.772
308.15 K, m1 = 0.56 | 1010.28 | 1547.2 | 0.785
308.15 K, m1 = 0.7019 | 1014.04 | 1553.9 | 0.804
308.15 K, m1 = 0.8453 | 1017.7 | 1560.5 | 0.815
308.15 K, m1 = 0.9876 | 1021.16 | 1567 | 0.825
308.15 K, m1 = 1.132 | 1024.55 | 1573.4 | 0.839

NCCCC(=O)O [4-aminobutanoic acid] + O
Conditions | mass density [kg/m3] | speed of sound [m/s] | viscosity [mPa·s]
288.15 K, m1 = 0.1389 | 1003.34 | 1478.5 | 1.204
288.15 K, m1 = 0.2788 | 1007.5 | 1490.3 | 1.252
288.15 K, m1 = 0.4194 | 1011.57 | 1501.8 | 1.313
288.15 K, m1 = 0.56 | 1015.51 | 1513 | 1.376
288.15 K, m1 = 0.702 | 1019.39 | 1523.9 | 1.452
288.15 K, m1 = 0.8449 | 1023.19 | 1534.5 | 1.515
288.15 K, m1 = 0.9892 | 1026.91 | 1544.8 | 1.591
288.15 K, m1 = 1.132 | 1030.5 | 1554.5 | 1.672
293.15 K, m1 = 0.1389 | 1002.43 | 1494.4 | 1.054
293.15 K, m1 = 0.2788 | 1006.57 | 1506 | 1.098
293.15 K, m1 = 0.4194 | 1010.61 | 1517.4 | 1.148
293.15 K, m1 = 0.56 | 1014.53 | 1528.5 | 1.206
293.15 K, m1 = 0.702 | 1018.37 | 1539.6 | 1.265
293.15 K, m1 = 0.8449 | 1022.12 | 1550.5 | 1.325
293.15 K, m1 = 0.9892 | 1025.79 | 1561.2 | 1.393
293.15 K, m1 = 1.132 | 1029.32 | 1571.5 | 1.464
298.15 K, m1 = 0.1389 | 1001.25 | 1508.1 | 0.936
298.15 K, m1 = 0.2788 | 1005.35 | 1519.3 | 0.975
298.15 K, m1 = 0.4194 | 1009.36 | 1530.3 | 1.022
298.15 K, m1 = 0.56 | 1013.22 | 1541.2 | 1.068
298.15 K, m1 = 0.702 | 1017.01 | 1551.9 | 1.125
298.15 K, m1 = 0.8449 | 1020.7 | 1562.2 | 1.178
298.15 K, m1 = 0.9892 | 1024.31 | 1572.5 | 1.243
298.15 K, m1 = 1.132 | 1027.75 | 1582.3 | 1.307
303.15 K, m1 = 0.1389 | 999.81 | 1520.1 | 0.835
303.15 K, m1 = 0.2788 | 1003.88 | 1530.9 | 0.874
303.15 K, m1 = 0.4194 | 1007.84 | 1541.6 | 0.91
303.15 K, m1 = 0.56 | 1011.67 | 1552.1 | 0.955
303.15 K, m1 = 0.702 | 1015.43 | 1562.4 | 0.994
303.15 K, m1 = 0.8449 | 1019.1 | 1572.4 | 1.037
303.15 K, m1 = 0.9892 | 1022.68 | 1582.3 | 1.095
303.15 K, m1 = 1.132 | 1026.12 | 1591.8 | 1.156
308.15 K, m1 = 0.1389 | 998.155 | 1530.4 | 0.753
308.15 K, m1 = 0.2788 | 1002.19 | 1540.9 | 0.788
308.15 K, m1 = 0.4194 | 1006.12 | 1551.3 | 0.822
308.15 K, m1 = 0.56 | 1009.94 | 1561.4 | 0.853
308.15 K, m1 = 0.702 | 1013.68 | 1571.3 | 0.894
308.15 K, m1 = 0.8449 | 1017.35 | 1581 | 0.94
308.15 K, m1 = 0.9892 | 1020.93 | 1590.6 | 0.991
308.15 K, m1 = 1.132 | 1024.37 | 1599.8 | 1.041
